This note sets out measurements from ChEMBL document CHEMBL1255184, “A novel series of positive modulators of the AMPA receptor: structure-based lead optimization” (Bioorg Med Chem Lett, 2010).

Converted amounts (≈) assume the structure as drawn. The source made the active and inactive calls.

Test system in the first data set: not listed separately
Kind of data set: Solubility of the compound. It is filed as physicochemical.
Details: not given
As a reminder, the solubility is the concentration that dissolves in the medium under given conditions. As to `CCNCc1cn(CC(=O)Nc2sc3c(c2C(N)=O)CCCC3)nc1C(F)(F)F`, the concentration in solution (solubility) was 0.107 mg/mL (≈ 249 µM).

In the case of `CNCc1cn(CC(=O)Nc2sc3c(c2C(N)=O)CCCC3)nc1C(F)(F)F`, the solubility worked out at 0.065 mg/mL (≈ 156 µM).

Turning to `CNCc1cn(CC(=O)Nc2sc3c(c2C(N)=O)CCCC3)nc1C(C)(C)C`, the solubility stood at 0.079 mg/mL (≈ 196 µM).

For the compound `O=C(Cn1nc(C(F)(F)F)c2c1CCCC2)Nc1sc2c(c1C(=O)N[C@@H]1CCNC1)CCCC2`, the concentration in solution (solubility) was 0.02 mg/mL (≈ 40.4 µM).

Test system in a further data set: not listed separately
Kind of data set: Plasma clearance in Wistar rat at 2 mg/kg, iv. Format: ADME, organism-based. Also on record: dose 2 mg/kg, route intravenous.
Details: not given
As usually defined, the clearance is a measure of how efficiently the substance is removed, as volume per time. Lower therefore signals inefficient removal. Take `CCNCc1cn(CC(=O)Nc2sc3c(c2C(N)=O)CCCC3)nc1C(F)(F)F`: the clearance came to 0.9 L/h/kg.

Compound `CNCc1cn(CC(=O)Nc2sc3c(c2C(N)=O)CCCC3)nc1C(F)(F)F` showed a clearance of 1.38 L/h/kg.

In turn, `CNCc1cn(CC(=O)Nc2sc3c(c2C(N)=O)CCCC3)nc1C(C)(C)C` gave a clearance of 0.54 L/h/kg. This clearance lies about 2.6-fold lower than the previous one.

`CNCc1cn(CC(=O)Nc2sc3c(c2C(=O)NC)CCCC3)nc1C(F)(F)F` gave a clearance of 2.58 L/h/kg.

Consider `O=C(Cn1nc(C(F)(F)F)c2c1CCCC2)Nc1sc2c(c1C(=O)N[C@@H]1CCNC1)CCCC2`, for which the clearance came out at 0.138 L/h/kg.

Test system in the next data set: not listed separately
Kind of data set: Ratio of drug level in brain to plasma in Wistar rat. Format: ADME.
Details: not given
One may read the Kp as the ratio of the level in a tissue or fluid to that in plasma or blood. Consider `CCNCc1cn(CC(=O)Nc2sc3c(c2C(N)=O)CCCC3)nc1C(F)(F)F`, for which the Kp came to 0.05.

As for `O=C(Cn1nc(C(F)(F)F)c2c1CCCC2)Nc1sc2c(c1C(=O)N[C@@H]1CCNC1)CCCC2`, the Kp is 1.03.

Test system in the next data set: not listed separately
Kind of data set: Intrinsic clearance in rat microsomes.
Details: not given
It is filed as ADME, Microsome.
One may read the microsomal CLint as the capacity of the preparation to metabolise the compound, expressed as a volume cleared per time. A low value points to slow turnover. Take `CCNCc1cn(CC(=O)Nc2sc3c(c2C(N)=O)CCCC3)nc1C(F)(F)F`: the microsomal CLint is below 19 µL/min/mg.

Consider `CNCc1cn(CCC(=O)Nc2sc3c(c2C(N)=O)CCCC3)nc1C(F)(F)F`, for which the microsomal CLint stood at 49 µL/min/mg.

As to `CNCc1cn(CC(=O)Nc2sc3c(c2C(N)=O)CCCC3)nc1C(F)(F)F`, the microsomal CLint was below 12 µL/min/mg.

The compound `CNCc1cn(CC(=O)Nc2sc3c(c2C(N)=O)CCCC3)nc1C(C)(C)C` gave a microsomal CLint of 15 µL/min/mg.

In turn, `O=C(Cn1nc(C(F)(F)F)c2c1CCCC2)Nc1sc2c(c1CO)CCCC2` had a microsomal CLint above 270 µL/min/mg.

In turn, `CCN(CC)Cc1cn(CC(=O)Nc2sc3c(c2C(N)=O)CCCC3)nc1C(F)(F)F` had a microsomal CLint above 270 µL/min/mg.

`CNCc1cn(CC(=O)Nc2sc3c(c2C(=O)NC)CCCC3)nc1C(F)(F)F` showed a microsomal CLint of 33 µL/min/mg.

Compound `NC(=O)c1c(NC(=O)Cn2nc(C(F)(F)F)c3c2CCNC3)sc2c1CCCC2` displayed a microsomal CLint of 33 µL/min/mg.

Test system in another data set: not listed separately
In words: Inhibition of kainate receptor.
Details: not given
For `CCNCc1cn(CC(=O)Nc2sc3c(c2C(N)=O)CCCC3)nc1C(F)(F)F`, the inhibition result was “inactive”.

Test system in the next data set: not listed separately
Kind of data set: Half life in Wistar rat at 2 mg/kg, iv. Also on record: dose 2 mg/kg, route intravenous. The conditions noted are these: in vivo. Format: ADME, organism-based.
Usually half-life stands for the time needed for the level to fall by half in the phase considered. With `CCNCc1cn(CC(=O)Nc2sc3c(c2C(N)=O)CCCC3)nc1C(F)(F)F`, the half-life was 1.1 h.

`CNCc1cn(CC(=O)Nc2sc3c(c2C(N)=O)CCCC3)nc1C(F)(F)F` showed a half-life of 1.5 h. This half-life and that of the compound before are within 1.5-fold of each other.

In turn, `CNCc1cn(CC(=O)Nc2sc3c(c2C(N)=O)CCCC3)nc1C(C)(C)C` gave a half-life of 1.9 h. The half-life values of the last two compounds are within 1.5-fold of each other.

For the compound `O=C(Cn1nc(C(F)(F)F)c2c1CCCC2)Nc1sc2c(c1C(=O)N[C@@H]1CCNC1)CCCC2`, the half-life was 3.8 h.

Test system in another data set: not listed separately
In words: Inhibition of GABA receptor.
Details: not given
Consider `CCNCc1cn(CC(=O)Nc2sc3c(c2C(N)=O)CCCC3)nc1C(F)(F)F`, for which the inhibition result is “inactive”.

A further data set concerns Rattus norvegicus. In words: Potentiation of AMPA-induced single unit activity in iv dosed hippocampus of anesthetized rat by electrophysiology assay. Format: functional. As to conditions: read-out: MED.
Turning to `CCNCc1cn(CC(=O)Nc2sc3c(c2C(N)=O)CCCC3)nc1C(F)(F)F`, the minimal effective dose amounted to 0.3 mg/kg.

Test system in the next data set: not listed separately
In words: Intrinsic clearance in human microsomes.
Details: not given
It is filed as ADME, Microsome.
`CCNCc1cn(CC(=O)Nc2sc3c(c2C(N)=O)CCCC3)nc1C(F)(F)F`: the microsomal CLint is below 12 µL/min/mg.

Consider `CNCc1cn(CCC(=O)Nc2sc3c(c2C(N)=O)CCCC3)nc1C(F)(F)F`, for which the microsomal CLint is 89 µL/min/mg.

With `CNCc1cn(CC(=O)Nc2sc3c(c2C(N)=O)CCCC3)nc1C(F)(F)F`, the microsomal CLint was determined as 33 µL/min/mg.

In the case of `CNCc1cn(CC(=O)Nc2sc3c(c2C(N)=O)CCCC3)nc1C(C)(C)C`, the microsomal CLint worked out at 15 µL/min/mg.

`O=C(Cn1nc(C(F)(F)F)c2c1CCCC2)Nc1sc2c(c1CO)CCCC2` registered a microsomal CLint above 270 µL/min/mg.

As for `CCN(CC)Cc1cn(CC(=O)Nc2sc3c(c2C(N)=O)CCCC3)nc1C(F)(F)F`, the intrinsic clearance (microsomal CLint) is above 270 µL/min/mg.

`CNCc1cn(CC(=O)Nc2sc3c(c2C(=O)NC)CCCC3)nc1C(F)(F)F`: the microsomal CLint turned out to be 16 µL/min/mg.

`NC(=O)c1c(NC(=O)Cn2nc(C(F)(F)F)c3c2CCNC3)sc2c1CCCC2` displayed a microsomal CLint of 57 µL/min/mg. This microsomal CLint is about 3.6-fold higher than that of the compound before.

Test system in a further data set: not listed separately
In words: Inhibition of NMDA receptor.
Details: not given
In the case of `CCNCc1cn(CC(=O)Nc2sc3c(c2C(N)=O)CCCC3)nc1C(F)(F)F`, the inhibition entry was “inactive”.

Test system in a further data set: not listed separately
In words: Oral bioavailability in Wistar rat at 10 mg/kg. Format: ADME, organism-based. The conditions noted are these: in vivo.
Broadly, the bioavailability is the share of a dose that reaches the circulation, judged against a reference dose that is usually intravenous. High values mean good availability, low ones poor availability. Turning to `CCNCc1cn(CC(=O)Nc2sc3c(c2C(N)=O)CCCC3)nc1C(F)(F)F`, the bioavailability turned out to be 43%.

As to `CNCc1cn(CC(=O)Nc2sc3c(c2C(N)=O)CCCC3)nc1C(F)(F)F`, the bioavailability came out at 15%.

As to `CNCc1cn(CC(=O)Nc2sc3c(c2C(N)=O)CCCC3)nc1C(C)(C)C`, the bioavailability was 16%.

In the case of `O=C(Cn1nc(C(F)(F)F)c2c1CCCC2)Nc1sc2c(c1C(=O)N[C@@H]1CCNC1)CCCC2`, the bioavailability was determined as 4%.

Test system in the next data set: not listed separately
In words: Volume of distribution at steady state in Wistar rat at 2 mg/kg, iv. Format: ADME, organism-based. The conditions noted are these: in vivo, read-out: Vdss. Also noted: dose 2 mg/kg, route intravenous.
In the case of `CCNCc1cn(CC(=O)Nc2sc3c(c2C(N)=O)CCCC3)nc1C(F)(F)F`, the Vd stood at 0.6 L/kg.

For `CNCc1cn(CC(=O)Nc2sc3c(c2C(N)=O)CCCC3)nc1C(F)(F)F`, the Vd was 2.4 L/kg.

Turning to `CNCc1cn(CC(=O)Nc2sc3c(c2C(N)=O)CCCC3)nc1C(C)(C)C`, the Vd worked out at 1.1 L/kg.

For the compound `O=C(Cn1nc(C(F)(F)F)c2c1CCCC2)Nc1sc2c(c1C(=O)N[C@@H]1CCNC1)CCCC2`, the Vd amounted to 0.5 L/kg.
